One series has as its system SH-SY5Y cells. As to the kind of experiment: TCA cycle flux in SHSY-5Y cells. Type of series: cell-based, human. The settings on record: FLVCR1a-silenced vs scramble shRNA SH-SY5Y cells. From the text: Results were expressed as nmol NAD*/min/mg mitochondrial protein for complex I, nmol reduced cytochrome c/min/mg mitochondrial protein for complexes II-III, nmol oxidized cytochrome c/min/mg mitochondrial protein for complex IV. Data represent mean±SEM, n=3. For statistical analyses, an unpaired Student's t-test was used; *=p<0.05, **=p<0.01, *=p<0.001. […] Results are expressed as nmol/mg mitochondrial proteins. Data represent mean±SEM, n=3. For statistical analyses, an unpaired Student's t-test was used; *=p<0.05. […] Results are expressed as pmol CO2/h/mg protein. Data represent mean±SEM, n=3. For statistical analyses, an unpaired Student's t-test was used; **=p<0.01. […] Results were expressed as nmol NAD*/min/mg mitochondrial protein for complex I, nmol reduced cytochrome c/min/mg mitochondrial protein for complexes II-III, nmol oxidized cytochrome c/min/mg mitochondrial protein for complex IV. […] Results are expressed as nmol/mg mitochondrial proteins. […] Results are expressed as pmol CO2/h/mg protein. […] (H) TCA cycle enzymes activities are reported in boxes and expressed as mU/mg mitochondrial proteins. […] Results were expressed as nmol NAD^+/min/mg mitochondrial protein for complex I, nmol reduced cytochrome c/min/mg mitochondrial protein for complexes II-III, nmol oxidized cytochrome c/min/mg mitochondrial protein for complex IV. […] Results are expressed as nmol/mg mitochondrial proteins. […]

The subject of another series is BTECs. In words: BTECs counting (cell proliferation). It counts as cell-based, human. To be noted: FLVCR1a-silenced vs scramble shRNA BTECs, 24, 48 and 72 hours. From the text:
(A) BTECs counting, as a readout of cell proliferation, at the indicated time points. […] Data represent mean±SEM, n=4. For statistical analyses, a two-way analysis of variance was used, followed by the Bonferroni correction for multiple group comparisons; ***p<0.001. (B) Quantification of BTECs migration rate in wound-healing assay. […] Data represent mean±SEM, n=32. For statistical analyses, a nonparametric unpaired Mann-Whitney test was used; ***p<0.001. (C) In vitro tubulogenesis assay on matrigel. […] The number of nodes counted within the neo-formed vascular networks is shown. Data represent mean±SEM; n=10. For statistical analyses, a nonparametric unpaired Mann-Whitney test was used; **p<0.01.
For cell counting, 1*10^4 BTECs were seeded in 12-well plates and counted at 24, 48 and 72 hours after plating, as a readout of cell proliferation. Three independent experiments were performed.

For “FLVCR1a shRNA: shRNA specifically down-regulating FLVCR1a without targeting FLVCR1b; pLKO.1 lentiviral clone TRCN0000059599, antisense SEQ ID No.: 2 (antisense TTGCTAATGATGCTGTACTGG; sense CCAGTACAGCATCATTAGCAA)”, the TCA cycle flux entry in the series on SH-SY5Y cells was “increased TCA cycle flux”. For the same substance, the “cell proliferation (cell counting)” value in the series with BTECs was “reduced proliferation”.
